Assay results from patent publication US6617126B1, “Method for improving the growth and colorimetric detection of bacteria, yeasts, fungi or cocci” (priority 1996, dated 2003).
Converted amounts (≈) assume the structure as drawn. Read-outs that look alike come from different tables or passages of the source.

Legend:
[1] = system: Mycobacterium tuberculosis; assay: microbe, parasite or virus in culture
[2] = system: Mycobacterium tuberculosis
[3] = H37RV, read-out: MIC (minimum inhibiting concentration), strain M.tb. H37 Rv
[4] = read-out: MIC (minimum inhibiting concentration), strain Clin. M.tb 1
[5] = read-out: MIC (minimum inhibiting concentration), strain Clin. M.tb 15

## CO[C@H]1/C=C/O[C@@]2(C)Oc3c(C)c(O)c4c(O)c(c(/C=N/N5CCN(C)CC5)c(O)c4c3C2=O)NC(=O)/C(C)=C\C=C\[C@H](C)[C@H](O)[C@@H](C)[C@@H](O)[C@@H](C)[C@H](OC(C)=O)[C@@H]1C [Rifampicin (RMP), Rifampicin]
[1]; [3]
  MIC: 2 µg/mL (≈ 2.43 µM)
[1]; [4]
  MIC: 1 µg/mL (≈ 1.22 µM)
[1]; [5]
  MIC: 2 µg/mL (≈ 2.43 µM)

## CC[C@@H](CO)NCCN[C@@H](CC)CO [Ethambutol (EMB), Ethambutol]
[1]; [3]
  MIC: 0.5 µg/mL (≈ 2.45 µM)
[1]; [4]
  MIC: 0.25 µg/mL (≈ 1.22 µM)
[1]; [5]
  MIC: 0.5 µg/mL (≈ 2.45 µM)

## NNC(=O)c1ccncc1 [Isoniacid (INA), Isoniacid]
[2]; strain Clin. M.tb 1
  MIC (minimum inhibiting concentration): 0.03 µg/mL (≈ 0.219 µM)
[2]; strain Clin. M.tb 15
  MIC (minimum inhibiting concentration): 0.03 µg/mL (≈ 0.219 µM)
[2]; strain M.tb. H37 Rv
  MIC (minimum inhibiting concentration): 0.06 µg/mL (≈ 0.438 µM)
